Each structure is given as a SMILES string.

Experiment [1] deals with T1, Peripheral plasma membrane protein CASK (Homo sapiens) (UniProt O14936).
T1 sequence (whole entry): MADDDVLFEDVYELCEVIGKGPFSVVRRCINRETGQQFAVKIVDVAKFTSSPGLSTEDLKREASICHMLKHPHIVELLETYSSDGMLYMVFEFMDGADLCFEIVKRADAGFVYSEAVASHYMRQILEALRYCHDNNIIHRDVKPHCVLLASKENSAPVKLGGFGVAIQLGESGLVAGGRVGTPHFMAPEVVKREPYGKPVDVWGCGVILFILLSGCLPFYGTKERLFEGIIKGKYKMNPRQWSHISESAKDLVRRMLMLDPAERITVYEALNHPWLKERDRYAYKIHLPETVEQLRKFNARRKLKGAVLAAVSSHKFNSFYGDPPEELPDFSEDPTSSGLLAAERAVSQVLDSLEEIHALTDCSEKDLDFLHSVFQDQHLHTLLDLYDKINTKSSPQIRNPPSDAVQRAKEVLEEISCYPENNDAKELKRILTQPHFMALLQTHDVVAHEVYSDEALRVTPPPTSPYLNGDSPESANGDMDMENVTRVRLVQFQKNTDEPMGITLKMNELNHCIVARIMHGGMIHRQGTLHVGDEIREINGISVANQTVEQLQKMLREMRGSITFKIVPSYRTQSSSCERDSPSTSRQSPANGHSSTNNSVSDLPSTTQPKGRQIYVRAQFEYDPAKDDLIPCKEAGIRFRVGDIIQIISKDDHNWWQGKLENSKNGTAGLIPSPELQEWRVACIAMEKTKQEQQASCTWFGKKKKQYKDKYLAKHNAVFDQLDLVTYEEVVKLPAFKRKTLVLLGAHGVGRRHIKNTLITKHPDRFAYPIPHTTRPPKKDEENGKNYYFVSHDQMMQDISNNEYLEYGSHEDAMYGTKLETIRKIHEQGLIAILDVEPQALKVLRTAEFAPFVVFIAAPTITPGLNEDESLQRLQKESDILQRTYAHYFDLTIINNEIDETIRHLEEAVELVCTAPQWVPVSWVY
Description: Selectivity interaction (Ambit KINOMEscan and KiNATiv profiling in Jurkat cells) EUB0000090b CASK. It counts as cell-based. Particulars: at 1 µM.

Experiment [2] deals with T2, cAMP-dependent protein kinase catalytic subunit PRKX (Homo sapiens) (UniProt P51817).
T2 sequence (whole entry): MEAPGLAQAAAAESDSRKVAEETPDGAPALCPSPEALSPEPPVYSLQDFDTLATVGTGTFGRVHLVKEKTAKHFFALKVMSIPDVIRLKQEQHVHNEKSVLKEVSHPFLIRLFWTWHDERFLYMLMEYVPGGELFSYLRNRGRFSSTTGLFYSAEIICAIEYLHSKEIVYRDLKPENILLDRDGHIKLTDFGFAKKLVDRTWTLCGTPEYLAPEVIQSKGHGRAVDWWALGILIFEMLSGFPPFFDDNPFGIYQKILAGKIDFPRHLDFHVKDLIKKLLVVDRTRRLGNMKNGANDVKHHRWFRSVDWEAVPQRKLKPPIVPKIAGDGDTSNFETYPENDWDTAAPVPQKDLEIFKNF
Description: Selectivity interaction (Ambit KINOMEscan and KiNATiv profiling in Jurkat cells) EUB0000090b PRKX. To be noted: at 1 µM. It is filed as cell-based.

Experiment [3] concerns the target T3, Interleukin-1 receptor-associated kinase 3 (Homo sapiens) (UniProt Q9Y616).
T3 sequence (whole entry): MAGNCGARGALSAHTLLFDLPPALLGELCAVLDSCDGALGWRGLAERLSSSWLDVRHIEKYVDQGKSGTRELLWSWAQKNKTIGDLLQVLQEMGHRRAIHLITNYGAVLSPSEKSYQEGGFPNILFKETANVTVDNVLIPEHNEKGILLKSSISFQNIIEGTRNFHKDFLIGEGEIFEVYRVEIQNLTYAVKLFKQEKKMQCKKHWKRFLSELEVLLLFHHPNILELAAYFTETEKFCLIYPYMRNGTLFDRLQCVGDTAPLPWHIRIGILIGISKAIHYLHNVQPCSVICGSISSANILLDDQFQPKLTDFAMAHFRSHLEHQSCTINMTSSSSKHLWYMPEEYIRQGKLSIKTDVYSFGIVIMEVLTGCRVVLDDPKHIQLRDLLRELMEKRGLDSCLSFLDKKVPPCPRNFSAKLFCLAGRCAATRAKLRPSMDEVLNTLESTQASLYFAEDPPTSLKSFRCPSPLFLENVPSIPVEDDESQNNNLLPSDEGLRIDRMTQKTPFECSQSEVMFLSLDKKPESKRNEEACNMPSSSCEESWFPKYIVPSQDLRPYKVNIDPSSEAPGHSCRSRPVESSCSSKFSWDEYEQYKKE
Description: Selectivity interaction (ActivX KiNativ screen (kinase selectivity in THP-1 cell lysates)) EUB0000639a IRAK3. It counts as subcellular. To be noted: lysate, at 0.01 µM.

For experiment [4], the target named is Death-associated protein kinase 3 (Homo sapiens) (UniProt O43293). The experiment is described as follows: Selectivity interaction (ProQinase) EUB0000171b DAPK3.
Chain of Death-associated protein kinase 3 (Homo sapiens) (O43293 whole entry, looked up): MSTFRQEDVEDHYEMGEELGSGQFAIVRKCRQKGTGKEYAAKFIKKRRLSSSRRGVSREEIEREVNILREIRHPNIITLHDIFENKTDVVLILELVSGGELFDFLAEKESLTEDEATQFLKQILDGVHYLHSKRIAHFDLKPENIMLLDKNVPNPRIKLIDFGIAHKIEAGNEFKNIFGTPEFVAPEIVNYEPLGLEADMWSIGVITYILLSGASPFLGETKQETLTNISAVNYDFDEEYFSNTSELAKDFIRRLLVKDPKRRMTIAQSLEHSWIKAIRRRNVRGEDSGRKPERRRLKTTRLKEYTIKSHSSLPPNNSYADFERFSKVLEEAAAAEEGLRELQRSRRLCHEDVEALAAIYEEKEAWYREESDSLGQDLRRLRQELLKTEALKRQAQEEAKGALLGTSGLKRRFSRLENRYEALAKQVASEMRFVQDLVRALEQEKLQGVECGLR
In experiment [5] the target is Dual specificity tyrosine-phosphorylation-regulated kinase 1A (Homo sapiens, UniProt Q13627). Description: Selectivity interaction (ProQinase) EUB0000171b DYRK1A.
Experiment [6] addresses T4, Serine/threonine-protein kinase RIO1 (Homo sapiens) (UniProt Q9BRS2).
T4 sequence (whole entry): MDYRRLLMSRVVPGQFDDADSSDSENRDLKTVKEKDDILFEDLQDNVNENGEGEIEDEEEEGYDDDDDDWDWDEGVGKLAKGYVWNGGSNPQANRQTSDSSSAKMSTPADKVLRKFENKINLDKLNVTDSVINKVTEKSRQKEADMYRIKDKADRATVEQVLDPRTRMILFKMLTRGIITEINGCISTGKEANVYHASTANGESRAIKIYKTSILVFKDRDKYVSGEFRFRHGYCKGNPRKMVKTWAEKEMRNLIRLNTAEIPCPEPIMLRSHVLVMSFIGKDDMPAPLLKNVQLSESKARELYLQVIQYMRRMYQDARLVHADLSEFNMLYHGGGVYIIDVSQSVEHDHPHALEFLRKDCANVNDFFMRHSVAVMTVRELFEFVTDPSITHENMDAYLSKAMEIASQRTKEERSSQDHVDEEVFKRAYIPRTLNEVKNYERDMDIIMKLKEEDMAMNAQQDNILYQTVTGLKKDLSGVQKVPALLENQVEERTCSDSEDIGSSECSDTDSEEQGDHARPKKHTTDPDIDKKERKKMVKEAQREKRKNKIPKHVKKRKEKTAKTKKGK
The experiment is described as follows: Selectivity interaction (KinomeScan (DiscoverX)) EUB0000045b RIOK1.

As to `CN(C)C/C=C/C(=O)Nc1ccc(C(=O)N2CCCC(Nc3ncc(Cl)c(-c4c[nH]c5ccccc45)n3)C2)cc1` (centres undefined), the % of control in experiment [1] stood at 90%; in experiment [2] it was 89%.
As to `CC[C@@H]1[C@H](F)C(=O)N[C@@H]1COc1nccc2cc(C(N)=O)c(OC)cc12` [ZIMLOVISERTIB], in experiment [3], the % of inhibition is -5.3%.
For `C=CC(=O)Nc1cccc(C(=O)Nc2ccc(Nc3cc(-c4[nH]c(SC)nc4C)ccn3)cc2)c1`, the % of control in experiment [4] (at 1 µM) was 88%; in experiment [4] (at 5 µM) it was 88%; in experiment [5] (at 1 µM) it was 92%; in experiment [5] (at 5 µM), 70%.
For `C=CC(=O)Nc1cc(-n2c(=O)ccc3cnc4ccc(-c5ccc(NS(C)(=O)=O)cc5)cc4c32)ccc1C`, the % of control turned out to be 20% in experiment [6] (at 1 µM) and 52% in experiment [6] (at 10 µM).

Source of the values: ChEMBL document CHEMBL5465560, “Selectivity Literature for EUbOPEN Chemogenomic Library” (2024).
